Source: patent publication US9884863B2, “STAT3 inhibitor” (Board of Regents, The University of Texas System, priority 2013, dated 2018)

Assays:
[1] = system: AsPC1; experiment: MTS cell proliferation assay, AsPC1; format: cell-based, human; conditions: Homo sapiens, ASPC1, 72 h, read-out: IC50 AsPC1 (Table 4)
Method in brief: (§1)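 Cells seeded at 2×10^3 cells/well and exposed 72 h to DMSO or 0.01–100 μM STAT3 inhibitor, quadruplicate wells per concentration. Proliferation read by MTS reduction, OD 550 nm after 1 h at 37 °C.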

[2] = system: Panc-1; experiment: MTS cell proliferation assay, Panc-1; format: cell-based, human; conditions: Homo sapiens, PANC-1, 72 h, read-out: IC50 Panc-1 (Table 4)
Method in brief: as §1

[3] = system: STAT3 and pSTAT3 in MDA-MB-231 xenograft tumors; experiment: IHC and Western blot of xenograft tumors; format: in vivo, mice; conditions: oral gavage 14 days
Source text: Immunohistochemistry (IHC): Paraffin blocks of the collected tissue were sectioned into 4 μm thickness and stained with H&E as a reference. All slides were subjected to phospho-STAT3 (Y705) IHC with ABC staining method. Rabbit or mouse IgG ABC kit was purchased from Vector Laboratories (Burlingame, Calif., USA) and ABC staining reagents were purchased from Sigma Aldrich (Louis, Mo., USA). PBS was used instead of primary antibody as a negative control.

[4] = system: STAT3 promoter activity in MDA-MB-231 cells; experiment: Transient transfection and dual luciferase reporter assay (pSTAT3-Luc); format: cell-based, human; conditions: 24 h
Procedure: MDA-MB-231 cells were pre-treated with niclosamide or 11 at different concentrations for 24 h. The STAT3 promoter activity in MDA-MB-231 cells was determined after transient transfecting with pSTAT3-Luc vector.
Transient Transfection and Dual Luciferase Reporter Assays. MBA-MB-231 cells were seeded in 24-well plate at a density of 5×10^4 cells/well in RPMI-1640 medium containing 10% FBS and 1% penicillin-streptomycin. Transient transfections were performed 4 h after plating, using the method described previously (Rees, D. C. et al., 2004; Shen, Q. et al., 2008). Total amount of DNA for transfections was 0.5 μg/well, including pSTAT3-Luc (95%, obtained from Panomics, Cat# LR0077) and internal control vector renilla (5%, from Promega, Madison, Wis., USA). 5 h after transfection, the cells were treated with compound […] for 24 h, then reporter activity was evaluated using dual luciferase reporter assay kit (Promega, Madison, Wis., USA) on an Omega™ Microplate Luminometer (BMG LABTECH Inc., NC, USA). Relative luciferase units were the ratio of the absolute activity of firefly luciferase to that of renilla luciferase. Experiments were conducted with triplicates and results are representatives of at least 3 independent experiments.

[5] = system: MCF-7; experiment: MTS cell proliferation assay, MCF-7; format: cell-based, human; conditions: Homo sapiens, MCF7, 72 h, read-out: IC50 MCF-7 (Table 4)
Method in brief: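 MCF-7 human breast cancer cells were exposed to test compounds at a range of concentrations, then proliferation was measured with the MTS reagent from Promega's CellTiter 96 AQueous Non-Radioactive Cell Proliferation Assay kit. After 1 hr at 37° C., OD at 550 nm was read on a 96-well iMark Microplate Absorbance Reader, with quadruplicate wells per concentration.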

Structure (SMILES): O=C(Nc1ccc([N+](=O)[O-])cc1Cl)c1cc(Cl)ccc1O [niclosamide, reference compound]
- IC50 [1]: 1470 nM
- IC50 [2]: 1730 nM
- STAT3 and pSTAT3 (Y705 and S727) in tumor lysates, Western blot [3]: decreased
- STAT3 promoter activity at 20 μM, in words [4]: suppressed
- IC50 [5]: 1060 nM
